Source: US7691564B2, “Heterotrimeric G-protein” (The Johns Hopkins University, priority 2000, dated 2010)
Read-outs that look alike come from different tables or passages of the source.

Experiments:
[1] = tested on: G-protein heterotrimer (Gα2-CFP:Gβ-YFP) linked to cAMP chemoattractant receptors; assay: FRET loss in living α2-CFP:β-YFP cells (fluorimeter); format: cell-based, D. discoideum; details: for EC50: read-out: EC50 for decrease of the FRET signal
Procedure: (§1) FIGS. 2A to 2E. Fluorescence spectra of cell lines. (FIG. 2A) Developed cells were excited in a Spex Fluoromax-2 fluorimeter at 440 nm and emission was collected between 460 nm and 600 nm and processed as described (14). Gα2-CFP/g α2^− cells (“α2-CFP”), α2-CFP: β-YFP cells (“α2-CFP: -YFP”), and mixture of equal number of Ga-2-CFP/gα2^− and G β-YFP/g βcells (“mixed cells”). […] Cells were scanned at selected time points following addition of the stimulus. […] Mean intensities were calculated in IPLab Spectrum by manually circumscribing the membrane of multiple cells. […] Arrows indicate the frame at which the stimulus was added. (FIG. 2E) Difference images of consecutive frames of one captured at 3 second intervals were calculated in IPLab Spectrum. […] Calibration bar is 10 μm.
FIGS. 3A to 3B. […] Data was processed as described (34). […] Data from two independent experiments were averaged for each curve.
We excited living, differentiated cells at 440 nm and recorded the emission spectrum between 460 and 600 nm.
• 1. A. G. Gilman, Annu Rev Biochem 56, 615-49 (1987). • 2. H. E. Hamm, J Biol Chem 273, 669-72 (1998). • 3. C. A. Parent, B. J. Blacklock, W. M. Froehlich, D. B. Murphy, P. N. Devreotes, Cell 95, 81-91 (1998). • 4. Z. Xiao, N. Zhang, D. B. Murphy, P. N. Devreotes, J Cell Biol 139, 365-74 (1997). • 5. G. Servant et al., Science 287, 1037-40 (2000). • 6. T. Jin, N. Zhang, Y. Long, C. A. Parent, P. N. Devreotes, Science 287, 1034-6 (2000). • 7. R. Heim, R. Y. Tsien, Curr Biol 6, 178-82 (1996). • 8. The coding region of the β-YFP fusion protein was cloned into the CV5 vector. CV5 was derived from p88 by addition of an actin 15/expression cassette from pMC34 (3). • 9. D. G. Lambright et al., Nature 379, 311-9 (1996). • 10. M. A. Wall et al., Cell 83, 1047-58 (1995) • 11. A. Kumagai et al., Cell 57, 265-75 (1989). • 12. The gene encoding CFP was inserted into a Spe1 site after residue 90, in the loop between the αA and the αB helices, of the Gα2 cDNA. The SpeI site also added a threonine and serine residue at the N and C terminal loundaries of the insertion. This fusion was cloned into the CV5 vector. The gα2^− cells were transformed, and individual G418 resistant clones were selected. […] Equal amounts of plasmids carrying the Gα2-CFP and Gβ-YFP fusions were mixed, transformed into gα2 cells, and individual G418 resistant clones were selected.

[2] = tested on: G-protein heterotrimer (Gα2-CFP:Gβ-YFP) in α-CFP:β-YFP cells; details: saturating dose, within 6 seconds
Procedure: as §1

cAR1 = molecular target: T1, cAR1 (Dictyostelium discoideum, UniProt P13773); details: cited from earlier work; for Kd: literature ref 16, read-out: reported binding affinity (average KD)
T1 sequence (P13773 1-392): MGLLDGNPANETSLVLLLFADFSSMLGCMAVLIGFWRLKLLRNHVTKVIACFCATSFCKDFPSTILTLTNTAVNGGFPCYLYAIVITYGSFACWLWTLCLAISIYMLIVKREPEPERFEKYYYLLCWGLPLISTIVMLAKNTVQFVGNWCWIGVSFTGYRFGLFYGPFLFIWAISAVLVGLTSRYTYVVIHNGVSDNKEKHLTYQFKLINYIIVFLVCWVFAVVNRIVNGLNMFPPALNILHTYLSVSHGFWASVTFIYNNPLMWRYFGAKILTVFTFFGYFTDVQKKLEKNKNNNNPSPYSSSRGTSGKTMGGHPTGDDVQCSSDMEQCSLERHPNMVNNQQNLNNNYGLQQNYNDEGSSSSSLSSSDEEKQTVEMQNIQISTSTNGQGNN

[3] = molecular target: T2, G-protein heterotrimer (Gα2-CFP:Gβ-YFP) (Dictyostelium discoideum, UniProt P16051, INS90[…]); assay: FRET signal in membranes prepared from α-CFP:β-YFP cells; format: biochemical, D. discoideum
T2 construct: expressed in transfected cells; host or cells: D. discoideum gα2-null cells (α-CFP:β-YFP cells), CV5 vector, G418-selected clones; living cells in A1 and A3, membranes prepared from them in A4

[4] = tested on: PH-domain recruitment to membranes; assay: PH domain (PHCRAC-GFP) binding to membranes in cell lysates; format: biochemical, D. discoideum
Procedure: FIGS. 4A to 4C. Continuous activation of the G-protein cycle. […] (FIG. 4B) Receptor regulation of PH domain translocation. […] After 2 minutes membranes were collected and binding of the PHCRAC-GFP was assessed by immunoblot analysis using antibodies to GFP (22). (FIG. 4C) Assessment of cAR1 phosphorylation.

[5] = α2-CFP:β-YFP cells, caffeine treated, 10 mM dithiothreitol

Nc1ncnc2c1ncn2C1OC2COP(=O)(O)OC2C1O (stereo not shown) [cAMP, cyclic adenosine 3′, 5′ phosphate]
FRET signal remaining, % of the initial value [1]: ~20% | change in FRET after adjusting to 10 μM [1]: further decrease in FRET | decrease of the FRET signal [1]: approximately 70% | duration of activation [1]: Activation did not subside | response as % of the maximum [1]: 90% | time for the FRET signal to return to its maximal level [1]: within two minutes | time to maximal response after stimulation [1]: ≤ 10 s | EC50 [1]: ~0.01 µM | decrease of the membrane FRET signal [2]: about 15%

Nc1ncnc2c1ncn2[C@@H]1O[C@H](COP(=O)(O)O)[C@@H](O)[C@H]1O [5′-AMP]
effect on the FRET signal ([1]; 1 mM): no effect on the FRET signal | binding to cAR1 (cAR1): does not bind to cAR1

Nc1nc2c(ncn2[C@@H]2O[C@H](COP(=O)(O)OP(=O)(O)OP(O)(O)=S)[C@@H](O)[C@H]2O)c(=O)[nH]1 [GTPγS]
FRET signal of membranes ([3]; GTPγS alone (data not shown)): not with GTPγS alone | FRET signal of membranes ([3]; Mg++ plus GTPγS (data not shown)): disappeared | binding of PH-domains to membranes ([4]; lysates from adapted cells (cAMP 15 minutes)): this response was lost | binding of PH-domains to membranes ([4]; lysates from naive cells): stimulated the binding of PH-domains to membranes

Nc1ncnc2c1ncn2C1CC2OP(=O)(O)OCC2O1 (stereo not shown) [2′-dcAMP]
EC50 [1, 5]: ~0.02 µM | Kd (cAR1): ~1 µM

Nc1ncnc2c1nc(Br)n2[C@@H]1O[C@@H]2COP(=O)(O)O[C@H]2[C@H]1O [8-Br-cAMP]
EC50 [1, 5]: ~2 µM | Kd (cAR1): ~32 µM
